As a reminder, the Ki is the dissociation constant of the complex between target and ligand, obtained from inhibition or displacement.

Assay [1] addresses T1, Bile salt export pump (Homo sapiens, UniProt O95342). As to the kind of experiment: TP_TRANSPORTER: competitive inhibition of Taurocholate uptake in membrane vesicles prepared from High Five cells infected with the ABCB11 baculovirus. Format: functional, cell membranes, BTI-TN-5B1-4, Membrane vesicle.
The target of assay [2] is T1, Bile salt export pump. As to the kind of experiment: TP_TRANSPORTER: inhibition of Taurocholate uptake(Rifampicin SV 30uM, 50 % of control) in membrane vesicles prepared from High Five cells infected with the ABCB11 baculovirus. Format: functional, cell membranes, BTI-TN-5B1-4, Membrane vesicle.

T1 sequence (O95342 whole entry): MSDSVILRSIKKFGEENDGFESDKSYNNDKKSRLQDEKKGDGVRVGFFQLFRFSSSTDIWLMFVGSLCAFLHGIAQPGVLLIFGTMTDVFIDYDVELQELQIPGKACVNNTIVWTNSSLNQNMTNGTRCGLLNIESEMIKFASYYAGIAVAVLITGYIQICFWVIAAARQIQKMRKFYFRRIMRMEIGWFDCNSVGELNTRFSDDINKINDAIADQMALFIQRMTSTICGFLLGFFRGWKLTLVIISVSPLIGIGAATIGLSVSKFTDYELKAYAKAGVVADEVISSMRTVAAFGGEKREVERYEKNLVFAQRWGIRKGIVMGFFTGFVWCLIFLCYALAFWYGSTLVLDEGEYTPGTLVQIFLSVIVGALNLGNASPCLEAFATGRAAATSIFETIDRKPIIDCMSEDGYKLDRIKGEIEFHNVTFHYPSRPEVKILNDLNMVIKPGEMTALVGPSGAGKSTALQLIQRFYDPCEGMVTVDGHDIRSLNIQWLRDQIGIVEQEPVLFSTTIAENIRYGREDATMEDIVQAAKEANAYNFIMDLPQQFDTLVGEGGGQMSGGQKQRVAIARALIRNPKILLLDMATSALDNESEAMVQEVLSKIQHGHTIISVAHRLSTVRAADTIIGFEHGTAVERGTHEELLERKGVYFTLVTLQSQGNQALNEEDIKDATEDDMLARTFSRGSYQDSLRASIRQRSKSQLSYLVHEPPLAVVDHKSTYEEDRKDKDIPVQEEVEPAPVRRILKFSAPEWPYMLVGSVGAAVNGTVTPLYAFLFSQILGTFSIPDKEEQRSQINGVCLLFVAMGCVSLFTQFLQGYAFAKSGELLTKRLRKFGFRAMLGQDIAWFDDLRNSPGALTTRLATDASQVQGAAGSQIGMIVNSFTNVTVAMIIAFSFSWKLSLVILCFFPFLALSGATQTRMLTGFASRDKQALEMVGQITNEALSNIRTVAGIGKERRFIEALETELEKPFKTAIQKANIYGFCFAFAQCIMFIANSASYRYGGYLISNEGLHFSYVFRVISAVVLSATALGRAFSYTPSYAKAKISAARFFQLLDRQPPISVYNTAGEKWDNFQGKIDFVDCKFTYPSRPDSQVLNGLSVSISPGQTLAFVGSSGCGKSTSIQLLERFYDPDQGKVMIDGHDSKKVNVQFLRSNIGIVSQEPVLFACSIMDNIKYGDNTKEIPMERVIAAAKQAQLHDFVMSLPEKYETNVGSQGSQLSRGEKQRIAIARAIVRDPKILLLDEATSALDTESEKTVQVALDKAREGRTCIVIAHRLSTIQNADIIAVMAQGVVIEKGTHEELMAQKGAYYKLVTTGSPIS

`C[C@H](CCC(=O)NCCS(=O)(=O)O)[C@H]1CC[C@H]2[C@@H]3[C@H](O)C[C@@H]4C[C@H](O)CC[C@]4(C)[C@H]3CC[C@]12C` [TAUROCHENODEOXYCHOLATE]: the Ki in assay [1] was determined as 28 µM.
Turning to `C[C@H](CCC(=O)NCC(=O)O)[C@H]1CC[C@H]2[C@@H]3[C@H](O)C[C@@H]4C[C@H](O)CC[C@]4(C)[C@H]3CC[C@]12C` [GLYCOCHENODEOXYCHOLATE], the Ki in assay [1] was found to be 7 µM.
On to `C[C@H](CCC(=O)NCC(=O)O)[C@H]1CC[C@H]2[C@@H]3[C@H](O)C[C@@H]4C[C@H](O)CC[C@]4(C)[C@H]3C[C@H](O)[C@]12C` [GLYCOCHOLIC ACID], for which, in assay [1], the Ki amounted to 11 µM.
Consider `CO[C@H]1/C=C/O[C@@]2(C)Oc3c(C)c(O)c4c(O)c(cc(O)c4c3C2=O)NC(=O)/C(C)=C\C=C\[C@H](C)[C@H](O)[C@@H](C)[C@@H](O)[C@@H](C)[C@H](OC(C)=O)[C@@H]1C` [RIFAMYCIN], for which the Ki in assay [2] is 31 µM.

The record behind these values is ChEMBL document CHEMBL2073959, “The human bile salt export pump: characterization of substrate specificity and identification of inhibitors” (Gastroenterology, 2002).
